Key:
[1] = system: Myocardial Ischemia Rat Model; experiment: Echocardiography in myocardial ischemia rat model (LAD ligation), effect of nobiletin on ventricle; assay type: in vivo; conditions: 21-day experiment, compared to the infarction group
[2] = system: Myocardial Ischemia Rat Model; experiment: Determination of infarct size by TTC staining; assay type: in vivo; conditions: compared to the infarction group
Protocol: 60 rats were randomized into 6 groups: (i) sham group (Sham), n=10, (left anterior descending (LAD) coronary arteries of the rats were only laid upon sutures without ligation, and 0.5% Tween normal saline was injected intraperitoneally); (ii) infarction group (AMI), n=10, (LAD coronary arteries of the rats were ligated before 0.5% Tween normal saline was injected intraperitoneally); (iii) nobiletin group of low dosage (AMI+NOB-L, n=10; LAD coronary arteries of the rats were ligated before 7.5 mg/kg nobiletin was injected intraperitoneally); (v) nobiletin group of medium dosage (AMI+NOB-M), n=10, (LAD coronary arteries of the rats were ligated before 15 mg/kg nobiletin was injected intraperitoneally); (vi) nobiletin group of high dosage (AMI+NOB-H), n=10, (LAD coronary arteries of the rats were ligated before 30 mg/kg nobiletin was injected intraperitoneally); (vii) enalapril group (AMI+Enalapril), n=10, (LAD coronary arteries of the rats were ligated before 10 mg/kg enalapril was given intragastrically); echocardiograms were taken after the 21-day experiment. Male SD rats were weighed and then anaesthetized by intraperitoneal injections of 10% chloral hydrate (300 mg/kg). The rats were fixed on a table lying on their back, each connected with an electrocardiography and 2-lead electrocardiograms (ECGs) were recorded. The rats were inserted with trachea cannulas and artificially ventilated with a ventilator (positive airway pressure, frequency: 70 times/min, Ti/(I:E)=5:4, VT: about 15 ml/kg). Sterilized the left parasternal skin on the third and forth intercostals regions, cut the skin and separated muscle layers trough blunt dissection, opened the thorax, then cut the pericardium to expose the left ventricle and the left auricle, the left ventricle coronary artery was seen descending from the middle of the left auricle to the anterior wall of the left ventricle (see FIG. 1). Using left coronary artery as a reference, between left auricle and pulmonary conus arteriosus, the left anterior descending (LAD) coronary arteries of the rats were ligated by NO. 6-0 sutures. ST segments rose in 2-lead electrocardiogram of the rat after LAD ligation (see FIG. 2), and myocardial ischemia symptoms such as the distal myocardial tissues turned pale after LAD ligation acted as an index of whether the ligation worked (see FIG. 3). Sham-treated rats underwent the same surgical procedure without the ligation of LAD coronary artery. […] When myocardial infarction occurs for some time, dehydrogenases in the cells were released and lost due to cell membrane damages. Because TTC is not deoxidized into a colored form, infarcted myocardium cannot be stained. […] (2) […]: Removed atriums and right ventricles, restored left ventricles were weighed and recorded. […] Weighed and recorded each slices. […]

[3] = system: H9C2 cells; experiment: Apoptosis detection by Annexin V/PI staining in cardiomyocytes subjected to oxygen-glucose deprivation (OGD); assay type: cell-based; conditions: H9C2 cells with OGD treatment, 5, 10, 20, 40, 80 μM nobiletin, dose-dependent manner, versus OGD control
Protocol: In vitro, H9C2 cells with OGD treatment were used to model myocardial ischemia. OGD treatment: the cells were cultured and subjected to OGD when the density of the cells reached to 80%-90%. Collected the OGD-treated cells from the medium and rinsed trice with glucose-free EBSS, after that cultured the cells in the same medium at 37° C. in an anoxia chamber saturated with 94% N2/5% CO2/1% O2 for a preset time.
After previous procedures, the cells were digested with 0.25% trypsin and collected to stain with both fluorescein isothiocyanate (FITC) labeled […] (Annexin V-FITC) and PI (according to the manufacturer's protocol of Annexin V-FITC kits). Flow cytometry detection was carried out immediately under an excitation wavelength of […] to detect 1×10^4 cells. PI emits light of a wavelength about 623 nm (red fluorescence) while FITC emits light of about 520 nm (green fluorescence). Analyzed the detection data by CELLQEST Software and the results were shown in scatter plots (see FIG. 9A-9F) and statistics (see FIG. 10).

[4] = AMI+NOB-H, 30 mg/kg intraperitoneally
[5] = AMI+NOB-M, 15 mg/kg intraperitoneally
[6] = nobiletin groups (7.5, 15, 30 mg/kg intraperitoneally)
[7] = AMI+Enalapril, 10 mg/kg intragastrically
[8] = enalapril group, 10 mg/kg intragastrically

In the case of `COc1ccc(-c2cc(=O)c3c(OC)c(OC)c(OC)c(OC)c3o2)cc1OC` [nobiletin], the “left ventricular ejection fraction (LVEF)” value [1, 4] is reported as “significantly increased”, the “left ventricular fractional shortening (LVFS)” value [1, 4] is reported as “significantly increased” and the “rise of left ventricular internal dimension, diastolic (LVIDD)” value (“rise … (LVIDD)” below) [1, 4] is reported as “no significant reduction”. The “rise of left ventricular internal dimension, systolic (LVIDS)” value (from here on “rise … (LVIDS)”) [1, 4] was “significantly reduced”, the “left ventricular ejection fraction (LVEF)” value [1, 5] was “significantly increased” and the “left ventricular fractional shortening (LVFS)” value [1, 5] was “significantly increased”. The “rise … (LVIDD)” value [1, 5] was “no significant reduction”, the “rise … (LVIDS)” value [1, 5] was “significantly reduced” and the “infarct area percentages (FIG. 8)” value [2, 6] was “lower”. For the same compound, the “white infarct areas in TTC-stained myocardium (FIG. 7)” value [2, 6] was “smaller” and the “apoptosis resulting from OGD” value [3] was “significantly reduced”.

In the case of `CCOC(=O)[C@H](CCc1ccccc1)N[C@@H](C)C(=O)N1CCC[C@H]1C(=O)O` [enalapril, reference compound], the “left ventricular ejection fraction (LVEF)” value [1, 7] is reported as “significantly increased”, the “left ventricular fractional shortening (LVFS)” value [1, 7] is reported as “significantly increased” and the “rise … (LVIDD)” value [1, 7] is reported as “no significant reduction”. For the same compound, the “rise … (LVIDS)” value [1, 7] was “significantly reduced”, the “infarct area percentages (FIG. 8)” value [2, 8] was “lower” and the “white infarct areas in TTC-stained myocardium (FIG. 7)” value [2, 8] was “smaller”.
